Like-named read-outs stand apart in the source and are kept apart here.

This experiment addresses SARS-CoV-2 NSP3 macrodomain (Mac1), P43 crystal form (Severe acute respiratory syndrome coronavirus 2, UniProt P0DTD1). Format: binding. The conditions noted are these: for 1-BDC: PanDDA background density correction; for Total number of conformations: ligand conformations modeled in Mac1 crystal structure; for 2*(1-BDC) (%): occupancy estimate from PanDDA 1-BDC; for X-ray crystallography: Binding site: site where the ligand is bound in the X-ray crystal structure.

Where [1] appears, read: crystal soak, soak concentration 10 mM.
The mark [2] stands for this setting: crystal soak, soak concentration 10 mM, TRUE = ligand hit.
[3] abbreviates: X-ray crystal structure determined (TRUE).
Where [4] appears, read: crystal soak 10 mM, P43 crystals.
[5] abbreviates: site of ligand in X-ray crystal structure.

For the compound `NC(=O)C1(O)CCN(c2ncnc3[nH]ccc23)C1` (stereo not shown) [AVI-611], the 1-BDC is reported as 0.22, the “Total number of conformations” value is 2 and the “2*(1-BDC) (%)” value is recorded as 44%. Moreover, the “Pandda run, overall: Modeled” value under setting [1] is on record as “TRUE”. Further, the “Pandda run, overall: Hit” value under setting [2] is recorded as “TRUE”. Besides, the X-ray crystal structure result (crystal structure with Mac1 determined (TRUE)) is on record as “TRUE”. For the setting “site of ligand in Mac1 crystal structure”, the Binding site result is “Adenosine”. Further, where the note is “soak concentration 10 mM”, the “PanDDA run, DMSO background map: 1-BDC” value turned out to be 0.22 and the “PanDDA run, DMSO background map: Hit” value was “TRUE”.
Turning to `OCC(CC1CCOC1)Nc1ncnc2[nH]ccc12` (stereo not shown) [AVI-3665], the 1-BDC is 0.17, the “Total number of conformations” value was 1 and the “2*(1-BDC) (%)” value was 34%. In addition, the X-ray crystal structure result under setting [3] is listed as “TRUE”. Further, under setting [4], the “Pandda run, overall: Hit” value is given as “TRUE” and the “Pandda run, overall: Modeled” value is reported as “TRUE”. For the setting “crystal soak 10 mM”, the “PanDDA run, DMSO background map: 1-BDC” value is given as 0.17 and the “PanDDA run, DMSO background map: Hit” value is listed as “TRUE”. In addition, under setting [5], the Binding site result is “Adenosine”.
As for `CC1CCN(c2ncnc3[nH]ccc23)C1CO` (stereo not shown) [AVI-3655], the 1-BDC is recorded as 0.21, the “Total number of conformations” value is listed as 1, the “2*(1-BDC) (%)” value is recorded as 42% and the “X-ray crystallography: Binding site” value was “Adenosine”. Also, under setting [4], the “Pandda run, overall: Hit” value was “TRUE” and the “Pandda run, overall: Modeled” value is “TRUE”. Further, for the setting “crystal soak 10 mM”, the “PanDDA run, DMSO background map: 1-BDC” value stood at 0.21 and the “PanDDA run, DMSO background map: Hit” value is reported as “TRUE”.
Turning to `CCC(Nc1ncnc2[nH]ccc12)C(C)O` (stereo not shown) [AVI-3635], the 1-BDC stood at 0.14, the “Total number of conformations” value worked out at 2 and the “2*(1-BDC) (%)” value was 28%. Also, the X-ray crystal structure entry under setting [3] is “TRUE”. Moreover, under setting [4], the “Pandda run, overall: Hit” value was “TRUE” and the “Pandda run, overall: Modeled” value is listed as “TRUE”. In addition, for the setting “crystal soak 10 mM”, the “PanDDA run, DMSO background map: 1-BDC” value is 0.14 and the “PanDDA run, DMSO background map: Hit” value is listed as “TRUE”. Besides, the “Pandda run, overall: Hit” value under setting [2] is “TRUE”. The Binding site entry under setting [5] is “Adenosine”. Further, for the setting “soak concentration 10 mM”, the “PanDDA run, DMSO background map: 1-BDC” value amounted to 0.23 and the “PanDDA run, DMSO background map: Hit” value is on record as “TRUE”.
In the case of `OCC(COCc1ccccc1)Nc1ncnc2[nH]ccc12` (stereo not shown) [AVI-3709], the 1-BDC was 0.19, the “Total number of conformations” value amounted to 2 and the “2*(1-BDC) (%)” value is 38%. Also, the X-ray crystal structure result under setting [3] is “TRUE”. Moreover, the “Pandda run, overall: Modeled” value under setting [1] was “TRUE”. Further, the “Pandda run, overall: Hit” value under setting [2] was “TRUE”. Moreover, under setting [5], the Binding site result is “Adenosine”. Also, under “soak concentration 10 mM”, the “PanDDA run, DMSO background map: 1-BDC” value came to 0.19 and the “PanDDA run, DMSO background map: Hit” value is on record as “TRUE”.
`OCC1CCCN1c1ncnc2[nH]ccc12` (stereo not shown) [AVI-3685]: the 1-BDC worked out at 0.25, the “Total number of conformations” value is recorded as 1, the “2*(1-BDC) (%)” value was 50% and the “X-ray crystallography: Binding site” value is reported as “Adenosine”. Besides, under setting [4], the “Pandda run, overall: Hit” value was “TRUE” and the “Pandda run, overall: Modeled” value is “TRUE”. Besides, under “crystal soak 10 mM”, the “PanDDA run, DMSO background map: 1-BDC” value is 0.25 and the “PanDDA run, DMSO background map: Hit” value is “TRUE”.
In the case of `C[C@@H](O)[C@H](CO)Nc1ncnc2[nH]ccc12.O=C(O)C(F)(F)F` [AVI-3730], the 1-BDC is given as 0.14, the “Total number of conformations” value came to 1 and the “2*(1-BDC) (%)” value is reported as 28%. Further, under setting [3], the X-ray crystal structure result is reported as “TRUE”. In addition, the “Pandda run, overall: Modeled” value under setting [1] is on record as “TRUE”. For the same compound, the “Pandda run, overall: Hit” value under setting [2] is “TRUE”. Also, the Binding site result under setting [5] is “Adenosine”. Where the note is “soak concentration 10 mM”, the “PanDDA run, DMSO background map: 1-BDC” value is 0.14 and the “PanDDA run, DMSO background map: Hit” value is on record as “TRUE”.
